In patent US20260042816A1, “TYROSINE KINASE INHIBITOR AND ACTIVIN TYPE 2 RECEPTOR ANTAGONIST COMBINATION THERAPY FOR TREATING PULMONARY ARTERIAL HYPERTENSION (PAH)” (GB002, INC., priority 2022, published 2026):

What was measured:
[1] = tested on: SuHx-mediated (SU5416 plus hypoxia) pulmonary hypertension; assay: SuHx (SU5416 plus hypoxia) rat model of PAH; assay type: in vivo, male Sprague Dawley rats; settings: for decrease in Fulton's Index (RV hypertrophy measurement) / decrease in PVR Index / decrease in RVSP / decrease in mPAP: normalized to vehicle (1) and normal controls (0), day 49, after 4 weeks of treatment, Seralutinib 15 mg/kg inhalation BID and/or Sotatercept (as RAP-011) 5 mg/kg SC 2x/week; for lung histology (hematoxylin and eosin), pulmonary vessels: representative images, FIG. 2
Description: PAH was induced in animal by a administering a single injection SU5416 (20 mg/kg) on day 0, followed by exposure of animals to hypoxia (10% oxygen) for 21 days. SuHx rats were divided in four groups and treated with i) Control: Seralutinib vehicle inhalation+Sotatercept vehicle injection (grey bar) or ii) Seralutinib 15 mg/kg, by inhalation, twice daily+Sotatercept vehicle, subcutaneous injection, twice a week (bar with horizontal pattern) or iii) Sotatercept 5 mg/kg subcutaneous injection, twice a week+Seralutinib vehicle, by inhalation, twice daily (bar with vertical line pattern) or iv) Seralutinib 15 mg/kg, by inhalation, twice daily+Sotatercept 5 mg/kg subcutaneous injection, twice a week (white bar); normoxia animals were used a healthy controls. Bar graph showing individual normalized data point for (A) Right ventricular systolic pressure (RVSP) (FIG. 1A), (B) mean pulmonary artery pressure (mPAP) (FIG. 1B), (C) right ventricular hypertrophy measured by fulton's index (FIG. 1C), and PVR index (FIG. 1D).
SuHx-mediated (SU5416 plus hypoxia) pulmonary hypertension was induced in male Sprague Dawley rats (see “Inhibition of the VEGF receptor 2 combined with chronic hypoxia causes cell death-dependent pulmonary endothelial cell proliferation and severe pulmonary hypertension”, Taraseviciene-Stewart et. al., FASEB J, 2001, 15, 427-438 and “TORREY, a Phase 2 study to evaluate the efficacy and safety of inhaled seralutinib for the treatment of pulmonary arterial hypertension”, Frantz R P, et. al., Pulmonary Circulation 2021; 11(4), 1-7). Semaxanib (SU5416) was administered to rats weighing 200-250 g as a single subcutaneous injection (20 mg/kg). Rats were housed for 3 weeks in 10% oxygen and subsequently re-exposed to normoxia during 4-week treatment period.
Rats underwent treatment for four weeks as described above, with treatment starting on day 22, after disease induction. After 4 weeks of treatment, the following parameters were evaluated: right ventricular systolic pressure (RVSP); Fulton index (weight ratio of right ventricle to the left ventricle and septum); and mean pulmonary arterial pressure (mPAP).
Animals from (Group 2-5) received a single subcutaneous injection of SU5416 (20 mg/kg) on Day 0 and exposed to hypoxia (10% O2) for 21 days followed by 4 weeks of normoxia. Group 1 animals (healthy group) remained in cages exposed to ambient oxygen (normoxic) levels for 49 days. Food and water were given ad libitum.
Treatment with inhaled seralutinib or vehicle, RAP-011 or mIgG2A was as described in Table 2.
Briefly, treatment with the aerosolized Seralutinib or vehicle was administrated for 45 minutes BID for 4 weeks starting day 22 (as outlined in Table 1) at an estimated dose to 15 mg/kg/dose using a Vilnius Aerosol Generator connected to an inhalation tower. The powder concentration was continuously monitored by portable aerosol monitor. Mercer-style cascade impactor was used to perform aerodynamic particle size distribution measurements. RAP-011 or mIgG was administered at 5 mg/kg dose via SC injection twice a week for 4 weeks starting day 22 as described in Table 2.
An echocardiogram monitoring of the progression of the disease was carried out on Day 21 (before treatment) and on surgery day (Day 49) for all groups. The results of the echocardiogram, from Day 21, was used to randomize the animals to ensure that only animals with severe enough disease are selected and that there is a similar disease stage across all groups.
On day 49, after 4 weeks of treatment, end of study procedures was performed: mean pulmonary arterial pressure (mPAP) and right ventricle systolic pressure (RVSP) were measured via an intra-ventricular fluid-filled catheter from AD instruments. Mean pulmonary arterial blood pressure values by using the formula mPAP=Diastolic Pressure+(Systolic Pressure−Diastolic Pressure)/3.

PAH patients = settings: patients treated with standard-of-care therapies; cited from earlier work
[2] = tested on: severe PAH in two animal models; settings: cited from earlier work

Compound	decrease in Fulton's Index (RV hypertrophy measurement) [1] [%]	decrease in PVR Index [1] [%]	decrease in RVSP [1] [%]	decrease in mPAP [1] [%]	lung histology (hematoxylin and eosin), pulmonary vessels [1]	clinical effect in PAH patients (PAH patients)	efficacy compared to imatinib ([2]; preclinical study)	efficacy of inhaled seralutinib in animal models of severe PAH ([2]; two animal models, improved hemodynamics, reduced NT-proBNP, reverse remodeling)
Sotatercept: soluble fusion protein composed of the extracellular domain of the activin receptor type IIA (ActR IIA) linked to the Fc portion of human IgG1 [reference compound]	15	25	31	28	non-occluded pulmonary vessels similar to the healthy group	beneficial effects	–	–
COc1ccc(-c2cncc(N[C@@H](C)c3cccc(NC(=O)c4cncc(C)c4)c3)n2)cc1OC [Seralutinib, N-{3-[(1S)-1-{[6-(3,4-dimethoxyphenyl)pyrazin-2-yl]amino}ethyl]phenyl}-5-methylpyridine-3-carboxamide]	9	26	13	23	non-occluded pulmonary vessels similar to the healthy group	–	greater efficacy compared to imatinib	effective treatment of severe PAH
